A value given as a limit tells only on which side of the number the result lay.

One series addresses T1, GluK1 (Rattus norvegicus, UniProt P22756).
T1 construct: made in house; host or cells: Sf9 insect cells (membranes)
Briefly: Radioligand binding at recombinant homomeric GluK1 in Sf9 membranes. The conditions noted are these: recombinant rat homomeric receptor, [3H]-(S)-NF608, mean ± SEM. The procedure: (§1) Ligand binding affinities at recombinant rat homomeric GluA2, GluK1−3, and GluK5 were determined as previously detailed. […] The filters were dried at 70 °C for 1 h, and 50 μL/well Microscint 20 (PerkinElmer, Waltham, MA, USA) was added. Radioactivity was detected with a TopCounter (PerkinElmer, Waltham, MA, USA). GluA2 and GluK5 assays were filtered on GF/C type filters using Millipore 12-well filtration manifolds (Merck Life Science, Søborg, Denmark) and washed twice with ice-cold assay buffer. Filters were placed in pony vials (PerkinElmer, Waltham, MA, USA), 3 mL of Ultima Gold scintillation fluid (PerkinElmer, Waltham, MA, USA) was added, and DPM (disintegrations per minute) were determined using a TriCarb 2900 scintillation counter (PerkinElmer, Waltham, MA, USA).
(§2) All competition curves (n ≥ 3 per ligand) were determined in triplicate. Data were analyzed using GraphPad Prism 6 (GraphPad Software, San Diego, CA, USA) to determine ligand affinity (Ki) and Hill coefficient (nH) using the one-site Ki and four-parameter logistics equations, respectively.

The target in a further series is T2, GluK2 (Rattus norvegicus, UniProt P42260).
T2 construct: made in house; host or cells: Sf9 insect cells (membranes)
T2 sequence (P42260 32-908): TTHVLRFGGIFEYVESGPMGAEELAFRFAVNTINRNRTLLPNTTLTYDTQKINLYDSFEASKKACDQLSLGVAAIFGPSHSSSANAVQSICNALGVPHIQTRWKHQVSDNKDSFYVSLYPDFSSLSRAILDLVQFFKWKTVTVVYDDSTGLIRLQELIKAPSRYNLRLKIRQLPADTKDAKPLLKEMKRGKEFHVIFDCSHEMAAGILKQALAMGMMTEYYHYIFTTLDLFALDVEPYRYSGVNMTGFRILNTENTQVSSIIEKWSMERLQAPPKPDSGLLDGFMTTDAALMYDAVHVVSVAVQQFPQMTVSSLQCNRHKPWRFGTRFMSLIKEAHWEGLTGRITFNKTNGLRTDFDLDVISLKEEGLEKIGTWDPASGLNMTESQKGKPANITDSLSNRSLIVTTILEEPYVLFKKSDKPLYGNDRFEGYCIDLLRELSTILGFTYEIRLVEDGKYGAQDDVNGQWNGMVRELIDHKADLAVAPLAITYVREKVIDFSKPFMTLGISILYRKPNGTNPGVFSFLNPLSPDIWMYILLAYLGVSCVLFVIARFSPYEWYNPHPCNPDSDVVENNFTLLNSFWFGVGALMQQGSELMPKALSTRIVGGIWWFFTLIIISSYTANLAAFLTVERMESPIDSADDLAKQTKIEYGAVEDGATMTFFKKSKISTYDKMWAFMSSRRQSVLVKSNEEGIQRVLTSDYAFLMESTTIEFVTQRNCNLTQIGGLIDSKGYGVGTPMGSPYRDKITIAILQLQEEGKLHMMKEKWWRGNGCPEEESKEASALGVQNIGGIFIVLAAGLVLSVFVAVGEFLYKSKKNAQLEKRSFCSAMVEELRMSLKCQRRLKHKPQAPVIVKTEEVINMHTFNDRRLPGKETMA
The series can be described thus: Radioligand binding at recombinant homomeric GluK2 in Sf9 membranes. The conditions noted are these: recombinant rat homomeric receptor, [3H]-kainic acid, mean ± SEM. The procedure:
as §1, §2

Another series addresses T3, GluK3 (Rattus norvegicus, UniProt P42264).
T3 construct: made in house; host or cells: Sf9 insect cells (membranes)
Briefly: Radioligand binding at recombinant homomeric GluK3 in Sf9 membranes. As to conditions: recombinant rat homomeric receptor, [3H]-kainic acid, mean ± SEM. The procedure: as §1, §2

The next series deals with T4, GluK5 (Rattus norvegicus, UniProt Q63273).
T4 construct: made in house; host or cells: Sf9 insect cells (membranes)
T4 sequence (Q63273 15-979): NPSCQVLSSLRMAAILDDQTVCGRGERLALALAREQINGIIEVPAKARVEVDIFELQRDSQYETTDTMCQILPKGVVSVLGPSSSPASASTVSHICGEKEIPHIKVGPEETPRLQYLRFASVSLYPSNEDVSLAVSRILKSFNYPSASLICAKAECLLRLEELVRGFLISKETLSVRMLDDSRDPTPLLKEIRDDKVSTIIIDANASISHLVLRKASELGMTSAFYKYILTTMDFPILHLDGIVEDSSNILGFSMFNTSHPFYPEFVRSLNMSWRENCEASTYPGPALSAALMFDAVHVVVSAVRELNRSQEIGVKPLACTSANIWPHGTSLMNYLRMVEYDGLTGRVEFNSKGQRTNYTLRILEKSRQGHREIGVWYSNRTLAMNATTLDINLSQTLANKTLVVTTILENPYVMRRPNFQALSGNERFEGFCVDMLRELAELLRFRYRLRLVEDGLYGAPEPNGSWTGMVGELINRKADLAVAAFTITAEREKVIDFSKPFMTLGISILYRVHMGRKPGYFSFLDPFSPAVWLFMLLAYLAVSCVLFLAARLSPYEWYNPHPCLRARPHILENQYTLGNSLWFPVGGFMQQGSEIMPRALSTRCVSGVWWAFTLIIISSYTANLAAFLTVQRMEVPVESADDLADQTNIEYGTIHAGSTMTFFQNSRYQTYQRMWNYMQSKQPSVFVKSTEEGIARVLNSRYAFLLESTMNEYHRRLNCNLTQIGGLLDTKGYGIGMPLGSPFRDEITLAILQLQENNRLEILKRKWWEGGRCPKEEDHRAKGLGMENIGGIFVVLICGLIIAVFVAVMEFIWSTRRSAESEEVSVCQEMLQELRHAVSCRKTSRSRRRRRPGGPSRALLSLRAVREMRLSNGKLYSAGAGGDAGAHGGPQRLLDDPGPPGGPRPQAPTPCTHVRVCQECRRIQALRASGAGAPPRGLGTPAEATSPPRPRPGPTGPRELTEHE
Briefly: Radioligand binding at recombinant homomeric GluK5 in Sf9 membranes. As to conditions: recombinant rat homomeric receptor, [3H]-kainic acid, mean ± SEM. Here is the method: as §1, §2

Another series addresses T5, GluA2 (Rattus norvegicus, UniProt P19491).
T5 construct: made in house; host or cells: Sf9 insect cells (membranes)
The series can be described thus: Radioligand binding at recombinant homomeric GluA2 in Sf9 membranes. The conditions noted are these: recombinant rat homomeric receptor, [3H]-(RS)-AMPA, mean ± SEM. The procedure:
as §1, §2

T1 sequence (P22756 31-949): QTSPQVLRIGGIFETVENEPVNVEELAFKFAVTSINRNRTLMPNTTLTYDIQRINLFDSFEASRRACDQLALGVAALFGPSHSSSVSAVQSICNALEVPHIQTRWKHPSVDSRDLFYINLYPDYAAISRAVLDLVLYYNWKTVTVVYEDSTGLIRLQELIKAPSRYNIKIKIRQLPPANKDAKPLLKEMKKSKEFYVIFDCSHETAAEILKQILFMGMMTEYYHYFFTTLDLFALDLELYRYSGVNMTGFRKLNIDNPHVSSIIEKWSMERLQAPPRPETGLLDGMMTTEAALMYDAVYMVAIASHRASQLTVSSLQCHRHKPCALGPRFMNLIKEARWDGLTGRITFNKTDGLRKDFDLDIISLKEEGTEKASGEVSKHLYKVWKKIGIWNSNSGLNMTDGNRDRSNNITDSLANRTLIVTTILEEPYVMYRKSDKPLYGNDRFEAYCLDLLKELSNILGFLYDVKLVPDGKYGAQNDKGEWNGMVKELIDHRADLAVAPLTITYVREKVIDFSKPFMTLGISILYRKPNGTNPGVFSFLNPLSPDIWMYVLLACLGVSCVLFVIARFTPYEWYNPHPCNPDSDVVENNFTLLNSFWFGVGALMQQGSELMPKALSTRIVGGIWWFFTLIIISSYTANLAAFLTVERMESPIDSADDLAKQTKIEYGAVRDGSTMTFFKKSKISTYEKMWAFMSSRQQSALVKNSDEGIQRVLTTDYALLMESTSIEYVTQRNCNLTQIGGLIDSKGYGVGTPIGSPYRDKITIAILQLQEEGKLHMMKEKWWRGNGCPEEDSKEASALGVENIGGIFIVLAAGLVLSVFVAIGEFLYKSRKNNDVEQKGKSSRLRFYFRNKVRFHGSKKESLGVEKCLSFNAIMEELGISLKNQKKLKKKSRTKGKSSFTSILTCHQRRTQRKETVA
T5 sequence (P19491 22-883): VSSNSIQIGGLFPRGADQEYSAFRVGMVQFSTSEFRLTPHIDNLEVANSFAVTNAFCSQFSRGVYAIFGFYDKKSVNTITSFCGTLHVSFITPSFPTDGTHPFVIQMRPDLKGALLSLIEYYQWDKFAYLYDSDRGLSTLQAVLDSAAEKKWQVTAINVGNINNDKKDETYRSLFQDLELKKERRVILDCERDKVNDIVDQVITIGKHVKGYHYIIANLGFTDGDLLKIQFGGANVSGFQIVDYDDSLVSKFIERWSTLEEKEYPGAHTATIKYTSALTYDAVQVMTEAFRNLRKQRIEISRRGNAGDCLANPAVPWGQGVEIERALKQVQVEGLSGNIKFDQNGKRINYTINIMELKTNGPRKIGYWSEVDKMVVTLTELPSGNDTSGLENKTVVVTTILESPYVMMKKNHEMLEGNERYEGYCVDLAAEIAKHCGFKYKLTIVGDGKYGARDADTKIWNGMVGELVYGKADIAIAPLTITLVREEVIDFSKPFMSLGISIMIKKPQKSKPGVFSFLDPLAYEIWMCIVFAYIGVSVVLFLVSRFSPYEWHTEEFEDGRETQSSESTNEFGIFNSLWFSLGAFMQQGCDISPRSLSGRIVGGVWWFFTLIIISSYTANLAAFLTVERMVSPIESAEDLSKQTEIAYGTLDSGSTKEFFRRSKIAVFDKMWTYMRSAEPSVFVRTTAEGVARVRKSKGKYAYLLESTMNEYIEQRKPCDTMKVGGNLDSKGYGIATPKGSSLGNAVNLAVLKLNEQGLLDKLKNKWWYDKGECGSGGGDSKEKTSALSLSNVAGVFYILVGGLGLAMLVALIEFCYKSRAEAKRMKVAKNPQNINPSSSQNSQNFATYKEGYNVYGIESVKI
T3 sequence (P42264 32-919): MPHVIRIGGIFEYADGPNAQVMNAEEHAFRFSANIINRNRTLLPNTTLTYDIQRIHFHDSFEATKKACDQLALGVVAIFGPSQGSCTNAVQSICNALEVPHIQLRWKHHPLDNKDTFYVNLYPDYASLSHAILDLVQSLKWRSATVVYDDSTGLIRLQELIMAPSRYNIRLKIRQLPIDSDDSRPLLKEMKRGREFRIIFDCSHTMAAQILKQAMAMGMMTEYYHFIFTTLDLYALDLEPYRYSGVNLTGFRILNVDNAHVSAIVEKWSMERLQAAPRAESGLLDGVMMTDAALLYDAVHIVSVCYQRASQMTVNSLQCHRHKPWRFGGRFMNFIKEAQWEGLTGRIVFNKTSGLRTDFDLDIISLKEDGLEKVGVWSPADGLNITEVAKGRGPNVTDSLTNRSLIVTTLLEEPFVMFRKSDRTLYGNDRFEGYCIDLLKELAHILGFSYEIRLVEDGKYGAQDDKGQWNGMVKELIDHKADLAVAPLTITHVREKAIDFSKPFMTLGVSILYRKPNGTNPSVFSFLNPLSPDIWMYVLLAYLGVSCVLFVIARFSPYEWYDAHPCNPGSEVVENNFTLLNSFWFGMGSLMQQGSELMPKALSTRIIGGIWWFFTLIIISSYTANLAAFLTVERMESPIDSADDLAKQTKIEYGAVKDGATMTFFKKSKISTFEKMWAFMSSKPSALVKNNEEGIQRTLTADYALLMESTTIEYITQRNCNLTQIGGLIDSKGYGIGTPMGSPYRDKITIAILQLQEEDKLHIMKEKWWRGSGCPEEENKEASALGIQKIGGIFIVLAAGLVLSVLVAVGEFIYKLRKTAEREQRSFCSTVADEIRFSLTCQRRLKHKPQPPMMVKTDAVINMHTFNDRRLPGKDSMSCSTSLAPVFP

The term Ki denotes a dissociation constant, usually derived from enzyme kinetics or from competition with a known ligand. Usually melting point stands for the temperature of the solid-liquid transition. Molecule `Cc1cccc(C#Cc2ccc3c(c2)[nH]c(=O)c(=O)n3NC(=O)c2ccccc2)c1` [Compound 5] returned a melting point of 318 to 320 °C. The Ki on GluK1 was approximately 100 µM. The Ki on GluK2 is approximately 100 µM. For the same molecule, the Ki on GluK3 worked out at 1.4 ± 0.4 µM. For the same molecule, the inhibition constant (Ki) on GluK5 is more than 100 µM. Further, at GluA2, the Ki was more than 100 µM.
In the case of `Cc1ccc(C#Cc2ccc3c(c2)[nH]c(=O)c(=O)n3NC(=O)c2ccccc2)cc1` [Compound 6], the melting point fell in the range of 325 to 327 °C. In addition, the Ki on GluK1 is not below 100 µM. The Ki at GluK3 amounted to 6.1 ± 0.8 µM.
`CCc1ccc(C#Cc2ccc3c(c2)[nH]c(=O)c(=O)n3NC(=O)c2ccccc2)cc1` [Compound 7] came in with a melting point of 308 to 310 °C. For the same molecule, the Ki on GluK1 was more than 100 µM. In addition, the Ki at GluK2 is more than 100 µM. Moreover, the Ki on GluK3 was 20 ± 1 µM. The Ki at GluK5 is more than 100 µM. For the same molecule, the inhibitory constant (Ki) at GluA2 was more than 100 µM.
Molecule `CCCc1ccc(C#Cc2ccc3c(c2)[nH]c(=O)c(=O)n3NC(=O)c2ccccc2)cc1` [Compound 8] had a melting point of 305 to 306 °C. Besides, on GluK1, the Ki is more than 100 µM. Further, the Ki on GluK2 is more than 100 µM. The Ki on GluK3 is 50 ± 12 µM. Also, the Ki on GluK5 was more than 100 µM. At GluA2, the Ki is more than 100 µM.
On to `CC(C)c1ccc(C#Cc2ccc3c(c2)[nH]c(=O)c(=O)n3NC(=O)c2ccccc2)cc1` [Compound 9], for which the melting point fell in the range of 263 to 264 °C. The Ki at GluK1 was more than 100 µM. The inhibition constant Ki at GluK2 was more than 100 µM. Further, the Ki on GluK3 stood at 38 ± 10 µM. Moreover, the Ki on GluK5 was more than 100 µM. The Ki at GluA2 was more than 100 µM.
Take `O=C(Nn1c(=O)c(=O)[nH]c2cc(C#Cc3ccc(Cl)cc3)ccc21)c1ccccc1` [Compound 10]: the melting point was in the range of 326 to 327 °C. The Ki at GluK1 was more than 100 µM. Besides, the inhibition constant Ki at GluK2 was more than 100 µM. For the same molecule, the Ki at GluK3 was 3.5 ± 0.7 µM. Moreover, the Ki on GluK5 is more than 100 µM. Further, the Ki at GluA2 is more than 100 µM.
On to `O=C(Nn1c(=O)c(=O)[nH]c2cc(C#Cc3ccc(C(F)(F)F)cc3)ccc21)c1ccccc1` [Compound 11], for which the Ki was approximately 100 µM on GluK1; more than 100 µM at GluK2; more than 100 µM at GluK3; more than 100 µM at GluK5; more than 100 µM on GluA2.
Consider `COc1ccc(C#Cc2ccc3c(c2)[nH]c(=O)c(=O)n3NC(=O)c2ccccc2)cc1` [Compound 12], for which the melting point is 304 to 305 °C. The Ki at GluK1 is more than 100 µM. For the same molecule, the Ki at GluK2 was more than 100 µM. The inhibitory constant (Ki) on GluK3 is 8.3 ± 0.4 µM. In addition, at GluK5, the inhibition constant Ki was more than 100 µM. Also, at GluA2, the Ki is more than 100 µM.
In turn, `O=C(Nn1c(=O)c(=O)[nH]c2cc(C#Cc3ccc(Oc4ccccc4)cc3)ccc21)c1ccccc1` [Compound 13] showed a melting point of 262 to 263 °C. Also, the Ki on GluK1 is not below 100 µM. The Ki on GluK3 came to 7.9 ± 0.7 µM.
`O=C(O)c1cccc(C#Cc2ccc3c(c2)[nH]c(=O)c(=O)n3NC(=O)c2ccccc2)c1` [Compound 14] came in with a melting point of 310 to 312 °C. The Ki on GluK1 is more than 100 µM. Also, the Ki on GluK2 is more than 100 µM. The Ki on GluK3 came to 28 ± 2 µM. For the same molecule, at GluK5, the Ki was more than 100 µM. Further, the inhibition constant (Ki) at GluA2 is more than 100 µM.
Regarding `O=C(O)c1ccc(C#Cc2ccc3c(c2)[nH]c(=O)c(=O)n3NC(=O)c2ccccc2)cc1` [Compound 15], the melting point is 348 to 349 °C. In addition, on GluK1, the inhibitory constant (Ki) was more than 100 µM. Further, the Ki at GluK2 is more than 100 µM. The Ki on GluK3 is 31 ± 4 µM. Besides, the Ki at GluK5 was more than 100 µM. Besides, the Ki at GluA2 was more than 100 µM.
Consider `NS(=O)(=O)c1ccc(C#Cc2ccc3c(c2)[nH]c(=O)c(=O)n3NC(=O)c2ccccc2)cc1` [Compound 16], for which the melting point is 303 to 305 °C. Also, the Ki on GluK1 is more than 100 µM. Further, at GluK2, the Ki was more than 100 µM. Also, the Ki on GluK3 is approximately 100 µM. The Ki at GluK5 was more than 100 µM. Also, the Ki on GluA2 is more than 100 µM.
Regarding `O=C(Nn1c(=O)c(=O)[nH]c2cc(-c3cc4ccccc4o3)ccc21)c1ccccc1` [Compound 18], the Ki was more than 100 µM on GluK1 and 14 ± 2 µM on GluK3.
Regarding `O=C(Nn1c(=O)c(=O)[nH]c2cc(C#Cc3cccc(O)c3)ccc21)c1ccccc1` [Compound 19], the melting point lay within 313 to 314 °C. Moreover, at GluK1, the Ki is more than 100 µM. Besides, the inhibition constant (Ki) on GluK2 was more than 100 µM. Moreover, on GluK3, the inhibition constant Ki was determined as 3.2 ± 0.6 µM. Besides, on GluK5, the inhibition constant (Ki) was more than 100 µM. Also, the Ki at GluA2 was approximately 100 µM.
Regarding `O=C(Nn1c(=O)c(=O)[nH]c2cc(C#Cc3ccc(CO)cc3)ccc21)c1ccccc1` [Compound 20], the melting point fell in the range of 298 to 300 °C. For the same molecule, on GluK1, the Ki was approximately 100 µM. For the same molecule, the Ki at GluK2 is more than 100 µM. The Ki on GluK3 amounted to 5.8 ± 1.5 µM. For the same molecule, on GluK5, the Ki was more than 100 µM. Besides, on GluA2, the Ki was more than 100 µM.
The molecule `Nc1ccccc1C#Cc1ccc2c(c1)[nH]c(=O)c(=O)n2NC(=O)c1ccccc1` [Compound 21] had a melting point of 303 to 305 °C. Also, the Ki at GluK1 turned out to be 14 ± 2 µM. In addition, the Ki at GluK3 came to 1 ± 0.1 µM.
`Nc1cccc(C#Cc2ccc3c(c2)[nH]c(=O)c(=O)n3NC(=O)c2ccccc2)c1` [Compound 22] came in with a melting point of 274 to 275 °C. Moreover, at GluK1, the Ki was more than 100 µM. In addition, on GluK3, the Ki was approximately 100 µM.
In turn, `Nc1ccc(C#Cc2ccc3c(c2)[nH]c(=O)c(=O)n3NC(=O)c2ccccc2)cc1` [Compound 23] came in with a melting point of 312 to 314 °C. Further, on GluK1, the Ki was more than 100 µM. Moreover, the Ki at GluK2 is more than 100 µM. Further, at GluK3, the Ki is 1.4 ± 0.2 µM. Besides, the Ki on GluK5 is more than 100 µM. The Ki at GluA2 was more than 100 µM.
Turning to `CN(C)c1ccc(C#Cc2ccc3c(c2)[nH]c(=O)c(=O)n3NC(=O)c2ccccc2)cc1` [Compound 24], the melting point is 273 to 275 °C. Besides, the Ki at GluK1 stood at 39 ± 4 µM. Further, the Ki on GluK3 turned out to be 24 ± 4 µM.
Molecule `O=C(Nn1c(=O)c(=O)[nH]c2cc(C#Cc3ccncc3)ccc21)c1ccccc1` [Compound 25] had a melting point of 239 to 241 °C. Also, on GluK1, the Ki is more than 100 µM. In addition, the Ki on GluK2 was more than 100 µM. For the same molecule, the Ki on GluK3 was found to be 25 ± 6 µM. Also, the Ki at GluK5 is more than 100 µM. For the same molecule, on GluA2, the Ki is more than 100 µM.
As for `NS(=O)(=O)c1cccc2c1c([N+](=O)[O-])cc1nc(O)c(O)nc12` [NBQX, reference compound], the figures for the Ki on GluK2 and on GluK5 were 5.4 ± 1.2 µM and 152 ± 23 µM, respectively.

These data come from PMC9369419 (International Journal of Molecular Sciences, 2022).
